The source of these data is publication PMC8742957, “Functional signaling test identifies HER2 negative breast cancer patients who may benefit from c-Met and pan-HER combination therapy” (Cell Communication and Signaling : CCS, 2022).

pIC50: −log10 of the molar value. Read-outs that look alike come from different tables or passages of the source.

Data set [1] has as its system HER-family receptors. In words: CELsignia real-time live cell IC50 titration of pan-HER inhibitors against NRG1b/EGF stimulation, primary breast cancer cells. In kind it is cell-based, human. To be noted: six primary breast cancer cell samples with hyperactive HER- and c-Met signaling; inhibitor 18 h before NRG1b/EGF; Poziotinib three, Tucatinib five samples. On the procedure:
Owing to limited numbers of non-passaged or low passaged primary cells, 1000-fold, five-point dose response for antagonists to HER-family and c-Met receptors was performed for each corresponding agonist stimulus (i.e. NRG1b/EGF for HER-family activation and HGF for c-Met activation) in a live-cell CELsignia assay and the observed values were averaged. Drug additions were made 18 h prior to agonist addition. The measurand recording period of four hours began after the agonist addition. Response was plotted as a percent of the maximum response to the agonist observed in the absence of any antagonist using GraphPad Prism software and IC50 values were derived using non-linear regression.
A representative dose–response curve of cells from patient R66 to stimulation with NRG1b/EGF following pre-treatment with the indicated antagonists is shown in Fig. 4a. A total of six primary cell lines isolated from as many patients were included in this IC50 titration test and the average values are summarized in Table 1. The IC50 values for pan-HER antagonists against NRG1b/EGF stimulation determined from our real-time live cell assay align with what was previously reported in cell-free assays.

The test system of data set [2] is HER/c-met signaling in HCC1954 cells. In words: CELsignia analysis of HCC1954 cells, antagonists against cocktail of agonists (NRG, EGF, HGF). It counts as cell-based, human. The note with it: cocktail NRG 3 nM, EGF 0.3 nM, HGF 50 pM, errors are standard deviation. How it is done:
During the combined drug testing, we investigated the benefit of targeting HER1 specifically in combination with c-Met.
2.5 3x GF (N RG 3 n M, E G F 0. 3 nM , HG F 50 p M)
Fig. S6: Impedance time course example for antagonist effects on a cocktail of agonists
(NRG, EGF and HGF) for HCC1954 used to derive data in Table 7 (N of 4 experiments).
Also included on the plot timecourse are cells only (HSSM, red line) untreated by agonist

Data set [3] has as its system HCC1954 xenograft. The note with it: NSG mice; for Tumor reduction, drug arm versus control: oral gavage QD 21 doses, Neratinib 40, Tepotinib 50, Erlotinib 25 mg/kg. How it is done: A selection of an appropriate cell line was necessary owing greatly to the limited commercially available tumorigenic breast cancer mouse models with the abnormal signaling function of interest to this study. Female NSG (NOD SCID gamma; NOD.Cg-Prkdc^scid Il2rg^tm1Wjl/SzJ) mice were procured from Jackson Labs (Bar Harbor, Maine, USA). The mice were injected in their fat pad with HCC1954 cells dissolved in 150 µL of a 50% Matrigel solution. Tumors were allowed to form until they reached a minimum average size of 150 mm^3. At this time, the tumor bearing cohort was divided up into 10-mouse treatment groups of uniform distribution of tumor sizes, just prior to initiating treatment. Tumor size and body weights were measured a minimum of twice per week. Upon completion of the study period, the mice were euthanized for necropsy and sample/tissue collection at the study endpoint or when tumor size reached ≥ 2 cm^3.
Female NSG mice, 4–5 weeks old, were injected subcutaneously in the left mammary fat pad with two million HCC1954 cells. After the average tumor volume reached 150 mm^3 the mice were randomly assigned into six cohorts of 10 mice each (n = 10). Each of the experimental mice were dosed by oral gavage with 100 µL dosing solution daily (QD) for 21 days (21 doses). […] In order to determine the effects of the pan-HER and c-Met antagonists on tumor size, the tumor volume (in mm^3) was measured and plotted as shown in Fig. 8b.

The target of data set [4] is T1, c-Met (Homo sapiens, UniProt P08581). In words: Cross-talk analysis, inhibition of HGF signal in patient primary tumor cells (CELsignia). To be noted: HGF 50 pM, Erlotinib 500 nM, Tucatinib 250 nM, Tepotinib 50 nM, four-hour period.
Data set [5] has as its system HER-family (EGF stimulation). In words: Impedance test IC50 with single growth factor EGF (set-up of median effects, HCC1954). To be noted: neratinib + EGF. In kind it is cell-based, human. An excerpt: Fig. S5: Median effects plots.
EGF on HCC1954. When CI>1,
and Talalay. CI<1 is indicative of synergy. C) Antagonist median effects plot of patient sample
indicative of additivity; CI<1 is indicative of synergy.

Data set [6] concerns HER-family and c-Met receptors. The data set is described as follows: CELsignia inhibition of combined NRG/EGF/HGF cocktail signal, patient breast cancer cells. In kind it is cell-based, human. The note with it: patient C135; Neratinib 500 nM, tepotinib 50 nM; compared to growth factor only well.
Description: To simulate this multiplexed perturbant condition and test the ability of the different targeted drugs to attenuate abnormal signaling from multiplexed agonists, patient breast cancer cells were stimulated with a growth factor cocktail of EGF, NRG1b, and HGF (N/E/H) to simultaneously initiate signaling via the HER-family and c-Met receptors. […] Cell index signaling units were calculated relative to the baseline values obtained from cells that were not treated with either agonists or antagonists.
The subject of data set [7] is BT-20 cells. In words: Flow cytometry of cell toxicity markers, BT-20. In kind it is cell-based, human. To be noted: 250 nM, singly or in combination, 16h. How it is done: (§1) For analysis of cell toxicity, single cell suspensions were stained with TMRE (200 nM for 30 min), washed with FACS buffer, and stained with Annexin V-AlexaFluor647 (Biolegend; San Diego, CA) following the manufacturers’ instructions. The TMRE/Annexin V stained cells were resuspended in FACS buffer containing Sytox Blue (Thermo Fisher; Waltham, MA) and analyzed on a Novocyte 3000 FACS instrument and NovoExpress software (Agilent; Santa Clara, CA). For analysis of intracellular phosphoproteins by FACS, cells were stained using a Live/Dead fixable dye (Zombie NIR; BioLegend), fixed using 1.6% paraformaldehyde, permeabilized with cold-methanol, and then stained using antibodies towards AKT-pS473 (Cell Signaling Technology; Danvers, MA) and FAK-pS910 (BD Biosciences) (Table S2) prior to FACS analysis.
Figure S7. CELsignia test is more sensitive and rapid for detecting anti-cancer drug efficacy compared to biological correlates – Normal signaling cell line, BT-20. BT-20 cells were normal signaling for HER and c-Met by the CELsignia test. To test flow cytometry markers for correlation a test was setup following the dose and time parameters used for the CELsignia test. The cells […]
(250 nM) and neratinib (250 nM), either singly or in combination, as indicated. Cells were harvested and then analyzed by flow cytometry for the markers shown following a period of 16h […]
(§2) (1 picture or pasted object on this page, not shown here)
Figure S9. CELsignia test is more sensitive and rapid for detecting anti-cancer drug efficacy compared to biological correlates – Normal signaling cell line, BT20 continued. BT-20 cells […]
Figure S11. CELsignia test is more sensitive and rapid for detecting anti-cancer drug efficacy compared to biological correlates – Normal signaling cell line, BT-20 continued. BT-20 cells
For orientation: In flow cytometry, cells or beads pass a laser one at a time.

Data set [8] deals with MDA-MB-231 cells. In words: Flow cytometry of cell toxicity markers, MDA-MB-231. To be noted: 250 nM, singly or in combination, 16h. In kind it is cell-based, human. On the procedure:
as §1
Figure S8. CELsignia test is more sensitive and rapid for detecting anti-cancer drug efficacy compared to biological correlates – Normal signaling cell line, MDA-MB-231. MDA-MB-231 cells were normal signaling for HER and c-Met by the CELsignia test. To test flow cytometry markers for correlation a test was setup following the dose and time parameters used for the CELsignia test. The cells were seeded in collagen-fibrinogen (CF) coated culture plates and treated […]
indicated. Cells were harvested and then analyzed by flow cytometry for the markers shown following a period of 16h drug treatment. […]
these drugs according to the Sytox blue marker.
as §2
Figure S10. CELsignia test is more sensitive and rapid for detecting anti-cancer drug efficacy compared to biological correlates – Normal signaling cell line, MDA-MB-231 continued.
MDA-MB-231 cells were seeded in collagen-fibrinogen (CF) coated culture plates and treated 6h […]
Cells were harvested and then analyzed by flow cytometry for the markers shown following a period of 16h drug treatment. […]
according to annexin V marker.
Figure S12. CELsignia test is more sensitive and rapid for detecting anti-cancer drug efficacy […]
according to TMRE marker.

The test system of data set [9] is BT-474 cells. In words: Flow cytometry of cell toxicity markers, BT-474, 72 h. In kind it is cell-based, human. The note with it: neratinib and/or tepotinib. On the procedure: as §1, with “analysis. […]” for “analysis.”
marker resistance to prolonged drug treatment – Normal signaling cell line, BT474. BT-474 […]
These cell lines were treated with neratinib […]
(§3) cytometry for cell death using Sytox Blue, apoptosis marker annexin V, and mitochondrial potential by TMRE staining. Flow cytometry histogram plots are representative of at least two […]
(§4) according to these markers.
as §2

The subject of data set [10] is A549 cells. The data set is described as follows: Flow cytometry of cell toxicity markers, A549, 72 h. In kind it is cell-based, human. The note with it: neratinib and/or tepotinib. On the procedure: For analysis of cell toxicity, single cell suspensions were stained with TMRE (200 nM for 30 min), washed with FACS buffer, and stained with Annexin V-AlexaFluor647 (Biolegend; San Diego, CA) following the manufacturers’ instructions. The TMRE/Annexin V stained cells were resuspended in FACS buffer containing Sytox Blue (Thermo Fisher; Waltham, MA) and analyzed on a Novocyte 3000 FACS instrument and NovoExpress software (Agilent; Santa Clara, CA). […]
marker resistance to prolonged drug treatment – Normal signaling cell line, A549. A549 cell […]
A549 cells were treated with neratinib […]
as §3, §4, §2

Data set [11] deals with AKT-pS473 and FAK-pS910 in HCC1954 cells. In words: Intracellular phospho-flow cytometry of AKT-pS473 and FAK-pS910, HCC1954. The note with it: 16 h. In kind it is cell-based, human.
Data set [12] concerns the target T1, c-Met. The data set is described as follows: cell-based.
Setting [13] is: read-out: Percent inhibition of growth factor signal, patient C753.
[14] abbreviates: read-out: Percent inhibition of growth factor signal, patient C1061.
The mark [15] stands for this setting: read-out: Percent inhibition of growth factor signal, patient R66.

T1 sequence (P08581 25-1390): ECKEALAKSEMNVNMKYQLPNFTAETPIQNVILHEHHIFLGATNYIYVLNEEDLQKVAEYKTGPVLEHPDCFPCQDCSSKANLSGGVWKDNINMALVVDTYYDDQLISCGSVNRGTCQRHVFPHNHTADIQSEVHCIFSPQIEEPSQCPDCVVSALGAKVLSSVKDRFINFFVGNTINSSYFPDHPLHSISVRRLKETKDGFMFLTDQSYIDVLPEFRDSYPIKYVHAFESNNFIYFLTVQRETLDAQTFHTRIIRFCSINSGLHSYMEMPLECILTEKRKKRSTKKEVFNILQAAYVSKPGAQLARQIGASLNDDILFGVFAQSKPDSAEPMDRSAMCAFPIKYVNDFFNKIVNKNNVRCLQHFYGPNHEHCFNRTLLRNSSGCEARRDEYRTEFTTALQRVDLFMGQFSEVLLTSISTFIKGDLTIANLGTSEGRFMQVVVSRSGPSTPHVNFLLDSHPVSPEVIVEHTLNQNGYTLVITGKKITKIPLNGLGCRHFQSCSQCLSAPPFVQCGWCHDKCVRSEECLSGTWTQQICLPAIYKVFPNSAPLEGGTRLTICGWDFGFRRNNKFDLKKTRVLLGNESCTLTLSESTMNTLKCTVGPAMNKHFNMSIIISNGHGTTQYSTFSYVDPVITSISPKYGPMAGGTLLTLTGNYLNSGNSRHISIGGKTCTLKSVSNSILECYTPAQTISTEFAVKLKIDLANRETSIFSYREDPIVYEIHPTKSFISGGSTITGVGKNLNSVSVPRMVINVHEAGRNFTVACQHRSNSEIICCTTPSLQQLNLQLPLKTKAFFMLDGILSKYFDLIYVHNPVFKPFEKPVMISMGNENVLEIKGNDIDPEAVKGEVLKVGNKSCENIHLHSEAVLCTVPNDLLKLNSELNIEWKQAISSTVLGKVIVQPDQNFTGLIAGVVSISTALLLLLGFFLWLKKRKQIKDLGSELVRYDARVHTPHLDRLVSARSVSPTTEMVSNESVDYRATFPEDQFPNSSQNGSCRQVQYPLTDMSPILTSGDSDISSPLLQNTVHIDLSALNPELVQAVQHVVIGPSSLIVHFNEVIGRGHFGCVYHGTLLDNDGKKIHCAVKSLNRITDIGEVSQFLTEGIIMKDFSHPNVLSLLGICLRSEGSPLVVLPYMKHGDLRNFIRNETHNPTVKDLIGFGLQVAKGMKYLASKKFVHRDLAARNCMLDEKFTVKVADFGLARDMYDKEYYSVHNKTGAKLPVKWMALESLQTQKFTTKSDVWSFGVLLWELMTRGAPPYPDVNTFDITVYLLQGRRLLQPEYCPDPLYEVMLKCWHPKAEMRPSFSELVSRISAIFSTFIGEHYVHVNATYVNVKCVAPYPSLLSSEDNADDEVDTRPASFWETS

A word on the pIC50: it is the negative decadic logarithm of the IC50, by convention in mol/L. `COc1cc2ncnc(Nc3ccc(F)c(Cl)c3)c2cc1NC(=O)/C=C/CN1CCCCC1` [Dacomitinib] showed a pIC50 in data set [1] of 7.66.
As a reminder, the inhibition is the change of the read-out against control, counted positive when it falls. Take `C#Cc1cccc(Nc2ncnc3cc(OCCOC)c(OCCOC)cc23)c1` [Erlotinib]: in data set [2], the “HER/c-met inhibition (%)” value was 9.2 ± 10.3 (n = 2) %. For the same compound, in [3], the “Tumor reduction, drug arm versus control” value was 5% (p = 0.870). In addition, the inhibition at 0.5 µM was 15% in data set [4] (setting [13]), 7% in [4] (setting [14]) and 38% in data set [4] (setting [15]).
Take `C=CC(=O)N1CCC[C@@H](n2nc(-c3ccc(Oc4ccccc4)cc3)c3c(N)ncnc32)C1` [Ibrutinib]: the pIC50 in data set [1] was 7.88.
In the case of `CS(=O)(=O)CCNCc1ccc(-c2ccc3ncnc(Nc4ccc(OCc5cccc(F)c5)c(Cl)c4)c3c2)o1` [Lapatinib], in data set [1], the pIC50 is 6.86.
Regarding `CCOc1cc2ncc(C#N)c(Nc3ccc(OCc4ccccn4)c(Cl)c3)c2cc1NC(=O)/C=C/CN(C)C` [Neratinib], the pIC50 was 8.32 in data set [1] and 7.82 in data set [5]. In addition, in data set [6], the “Order of efficacy against response to simultaneous NRG, EGF and HGF” value was “more efficacious”. In addition, the “HER/c-met inhibition (%)” value in [2] is given as 14.6 ± 29.6 (n = 4) %. For the same compound, the “Response according to TMRE marker” value in [7] and in [8] was “do not respond” each time. Also, the “Response according to annexin V marker” value in data set [7] and in [8] was “do not respond” in each case. Also, the “Response according to the Sytox blue marker” value in [7] and in data set [8] was “do not respond” in each case. Besides, the “Response according to Sytox Blue, annexin V and TMRE markers” value (shortened to “Response according to Sytox Blue”) in [9] and in data set [10] was “do not respond” throughout. Besides, the “distribution of pFAK high cells” value in data set [11] is “not significantly altered”. Further, in data set [11] (singly and in combination with tepotinib), the “frequency of pAKT high cells” value is reported as “dose-dependent decline”. Also, the “Tumor reduction, drug arm versus control” value in data set [3] was 54% (p = 0.003); in [3] (listed as neratinib), 54%.
The compound `C=CC(=O)N1CCC(Oc2cc3c(Nc4ccc(Cl)c(Cl)c4F)ncnc3cc2OC)CC1` [Poziotinib] had a pIC50 in data set [1] of 8.91.
Still for that read-out and setting: the value for `CNC(=O)CN1CCC(Oc2cc3c(Nc4cccc(Cl)c4F)ncnc3cc2OC)CC1` [Sapitinib] was 7.38.
Compound `C[C@@H](c1ccc2nccn2c1)n1nnc2ncc(-c3cnn(C)c3)nc21` [Savolitinib] showed a pIC50 in data set [12] of 8.45.
`CN1CCC(COc2cnc(-c3cccc(Cn4nc(-c5cccc(C#N)c5)ccc4=O)c3)nc2)CC1` [Tepotinib]: in [7], the “Response according to TMRE marker” value is listed as “do not respond”, the “Response according to annexin V marker” value is recorded as “do not respond” and the “Response according to the Sytox blue marker” value was “do not respond”. Moreover, in data set [8], the “Response according to TMRE marker” value is given as “do not respond”, the “Response according to annexin V marker” value is “do not respond” and the “Response according to the Sytox blue marker” value was “do not respond”. The “Response according to Sytox Blue” value in data set [9] was “do not respond”. Moreover, the “Response according to Sytox Blue” value in data set [10] is “do not respond”. The “effect on pFAK and pAKT population distributions” value in [11] (single agent) is reported as “no detectable dose-dependent effect”. For the same compound, in data set [3], the “Tumor reduction, drug arm versus control” value is given as 10% (p = 0.780). In data set [3] (oral gavage QD, Tepotinib 50 mg/kg, Neratinib + Tepotinib 40 + 50 mg/kg), the “Adverse observations in treated cohort” value is “^#Due to weight loss, 1 mouse given 3 day dose holiday due, and 1 mouse given 7 day dose holiday”.
Turning to `Cc1cc(Nc2ncnc3ccc(NC4=NC(C)(C)CO4)cc23)ccc1Oc1ccn2ncnc2c1` [Tucatinib], the pIC50 in [1] is 6.48. Besides, the inhibition at 0.25 µM in [4] (setting [13]) is -6%; in [4] (setting [14]), -13%; in data set [4] (setting [15]), 25%.
